In US20260276656A1, “GUT MICROBIOTA-RELATED METHODS FOR TREATING DEMENTIA AND AGE-DEPENDENT COGNITIVE DECLINE” (Albert-Ludwigs-Universitat Freiburg, priority 2019, published 2026):

System: C57BL/6J mice
Assay: T-maze spontaneous alternation test (spatial working memory)
Type: in vivo, mouse
Conditions: for spatial working memory (T maze test): systemic (intraperitoneal) injection, FIG. 11 left; for T maze performance: 5 mg/kg i.p. 1 h before
Experimental: In order to acutely deplete the gut microbiota, 15-16 months old SPF males were treated via oral gavage with a mixture of antibiotics (ABX), containing Cefoxitin (Santa Cruz Biotechnology), Gentamicin (Sigma-Aldrich) Metronidazole (Sigma-Aldrich), and Vancomycin (Hikma-pharma), each 10 mg/kg in sterile 1×PBS, for three consecutive days. On the fourth day, the mice were treated with one dose of Clindamycin hydrochloride (33.3 mg/kg) (Sigma-Aldrich). Fecal microbiota transplantations (FMTs) were started 24 h later. To deplete csf1-dependent cells in vivo, including microglia, mice were provided with CSF1R-inhibitor PLX5622 (Plexxicon Inc.) mixed into AIN-76A standard chow at 1200 mg/kg (Research Diets Inc.) ad libitum. Respective controls received AIN-76A standard chow. Mice were injected with 5 mg/kg δ-valerobetaine (MCAT, Germany) 1 h before behavioral testing.
For microbiota depletion studies, SPF mice were treated with 1 mg/ml of ampicillin (Auromedics), neomycin sulfate (Fisher), streptomycin (Sigma) and 0.5 mg/ml of vancomycin (Sagent) in the drinking water for 4-5 weeks (Khosravi et al., 2014). These mice were recolonized via FMT, which was achieved by oral gavage of a faecal slurry. Recipient mice had the food removed from the cage for 2 h prior to FMT. The faecal slurry was obtained by pooling faecal pellets from 8-14 donor mice. The pellets were weighed and resuspended by vortexing for 1 min in 1 mL PBS per 300 mg of faeces. After pelleting larger particles by centrifugation at 500×g for 5 min, the supernatant was collected for FMT. Each recipient mouse received 150 μl of faecal slurry by oral gavage. The remaining slurry was stored at −80° C. for 16S rRNA sequencing. Following FMT, the cages of recipient mice were replenished with dirty bedding and fresh faecal pellets from donor mice once and twice a week, respectively. Faecal pellets for 16S rRNA sequencing were collected the day before FMT and at the end of the experiment and were stored at −80° C. for DNA extraction. For re-colonization of ABX treated mice, FMTs from 8 weeks old or 15-16 months old males were undergone. Fresh fecal pellets are collected under a sterile hood and directly thoroughly homogenized in 0.1% L-Cysteine hydrochloride monohydrate in 1×PBS in order to maintain anaerobic microbes. The homogenates were spun down for 1 min, 200 g at 4° C. and the turbid supernatant was used to orally and rectally gavage the recipient mice. The FMT was performed twice 72 h apart.
NNN-trimethyl-5-aminovalerate was dissolved in 0.9% NaCl and administered i.p. at a dose of 200 mg/kg in a volume of 10 ml/kg. As control the vehicle NaCl was injected.
Mice were tested 40 min after drug- or vehicle injection or 4 weeks after FMT. We first performed the training run for the Novel-object recognition test, followed by the T maze test and then 6 h after the training session mice were tested in the Novel object recognition test. Spatial working memory was tested using the continuous spontaneous alternation task in a T-maze as described previously (Spowart-Manning, L. et al). Briefly, animals were set into the base of a T-maze and allowed to explore a randomly assigned T-maze arm until it returned to the base arm. Subsequently, the blocked arm was opened, and the animal was allowed to explore the complete maze. Once one arm of the T-maze was entered, the other arm was blocked until the animal returned to the base arm. Then, the exit of the base arm was blocked for 5 s and the animal was allowed to explore the maze again. The experiment was stopped after 14 free choice arm entries. Arm entries were scored as alternations if an animal chose the opposing arm compared to the arm visited immediately prior to the scored instance. The Novel Object Recognition (NOR) task was applied to evaluate recognition memory as published previously (Antunes, M. & Biala, G. et al). During the habituation phase, each mouse was allowed to explore two similar objects within a total exploration time of 20 s. […]

## C[N+](C)(C)CCCCC(=O)[O-] [NNN-trimethyl-5-aminovalerate, 5-(trimethylammonio) pentanoate]
Old mice (15-16 months) +ABX+yFMT, 5 mg/kg i.p. 1 h before testing, FIG. 10F
  T maze: improvement in learning and memory after FMT from young mice: abolished
Old mice (20-24-month-old)
  spatial working memory (T maze test): no additional impairing effects
Old mice that had received gut microbiota from old mice (old+ABX+oFMT), FIG. 10F
  T maze performance: no additional deteriorating effect
Young adult mice (8 weeks), versus vehicle, FIG. 10B
  T maze performance: significantly worse
Young mice (2-month-old), PBS control
  spatial working memory (T maze test): reduced
